Like-named read-outs stand apart in the source and are kept apart here.
What was measured:
[1] = Pharmacokinetics in beagles, single-dose regimen of TRQI (i.v.) or TRQC (oral), plasma LC-MS/MS; assay type: in vivo, beagle; settings: for AUC(0-t) / Cmax / Tmax / half-life: beagle, dog, plasma; for AUC(0-t): read-out: AUC0–24 h; for Cmax / Tmax / half-life: mean of six beagles
Protocol: (§1) 100 μL plasma sample was drawn and transferred to 1.5 mL centrifuge tube prior to 300 μL protein precipitant (3:1 [v/v] methanol/acetonitrile, containing 0.1% formic acid and 100 ng/mL IS) was added, and then the sample was vortex-mixed for 3 min. The mixture was centrifuged at 20,000 ×g for 10 min, and 100 μL supernatant was transferred to the injection vial and analyzed directly by LC–MS/MS.
(§2) This study was carried out in six beagles (three males and three females, 9.0–12.0 kg each), that were purchased from Junda Pet Hospital (Shanghai, China). This experimental protocol was approved by the Experimental Animal Ethics Committee of the Naval Military Medical University (Shanghai, China).
The six healthy beagles were divided into two groups: beagles 1–3 were all male and were assigned to the first group, and beagles 4–6 were all females and assigned to the second group. The two-cycle, crossover study was designed with a 7-day wash out period. For the single-administration process, the dogs in the first group were injected intravenously with 0.5 mL/kg TRQI (one-third of the normal daily dose), and blood samples were collected at 0, 5, 10, 15, 20, 30, and 45 min and then at 1, 2, 4, 6, 8, 12, and 24 h (a total of 14 time points) after injection. For each blood sample, 1 mL of blood was collected from the forelimb vein in heparin-treated tubes. The dogs in the second group were orally administrated 0.09 g/kg TRQC (one-third of the normal daily dose, and blood samples were collected in the same manner at 0, 10, 20, and 40 min and then at 1, 1.5, 2, 2.5, 3, 4, 6, 8, 12, and 24 h (a total of 14 time points). All blood samples were centrifuged at 4000 × g for 5 min, and each supernatant was collected and aliquoted. After a 7-day wash out period, the dogs in each group were administrated the other Tanreqing formulation in a crossover design, and blood samples were collected and processed in the same way.
(§3) All data obtained were analyzed using Drug and Statistics (DAS) 2.0 software (Chinese Society of Pharmacology), and a non-compartment analysis was used to calculate plasma pharmacokinetic parameters. The principal components of TRQI and TRQC were compared with an analysis of variance (ANOVA) and/or a two-tailed student-t test.

[2] = Tanreqing injection, cited from earlier work
[3] = Pharmacokinetics in beagles, multiple-dose regimen (once per day for 7 days) of TRQI or TRQC, plasma LC-MS/MS; assay type: in vivo; settings: beagle, dog
Protocol: as §1, §2
After the end of the single-dose experiment, the dogs in group one were given 0.5 mL/kg injection of TRQI once per day for 7 days following the wash out period, and the dogs in group two were given 0.09 g/kg TRQC once per day for 7 days. After the seventh administration, blood samples were collected at 0, 10, 20, and 40 min and then at 1, 1.5, 2, 2.5, 3, 4, 6, 8, 12, and 24 h (a total of 14 time points) and were processed as described in “Single-dose regimen” section. The resulting plasma samples were used to determine the steady-state plasma concentration of TRQI and TRQC. A crossover study was again carried out in both groups, as described in “Single-dose regimen” section, after a 7-day washing period.
as §3

[4] = Stability of analytes in dog plasma (QC samples); assay type: in vitro ADME
Protocol: The stock solutions of all analytes were further mixed and diluted with methanol/water (10:90, v/v) solution to prepare the working solutions. […] The QC samples were stored in a refrigerator at – 80 °C until retrieval (see Additional file 1). The stability, which includes short-term stability (6 h at room temperature), long-term stability (− 80 °C for 30 days in the refrigerator), and freeze–thaw stability (three cycles from − 80 °C to room temperature), were assessed using QC samples at three concentration levels in three replicates. […] Similarly, there were no obvious effects on the analysis results of the samples with respect to short-term stability or long-term storage.

[5] = both sexes, iv, single i.v. dose of TRQI 0.5 mL/kg
[6] = both sexes, single oral dose of TRQC 0.09 g/kg
[7] = both sexes, iv, TRQI 0.5 mL/kg once per day for 7 days, mean
[8] = both sexes, po, TRQC 0.09 g/kg once per day for 7 days, mean
[9] = n = 3, high QC: nominal 200 ng/mL baicalin, 1000 ursodeoxycholic acid, 100 chenodeoxycholic acid and chlorogenic acid
[10] = n = 3, low QC: nominal 4 ng/mL baicalin, 20 ursodeoxycholic acid, 2 chenodeoxycholic acid and chlorogenic acid
[11] = n = 3, middle QC: nominal 20 ng/mL baicalin, 100 ursodeoxycholic acid, 10 chenodeoxycholic acid and chlorogenic acid

## C[C@H](CCC(=O)O)[C@H]1CC[C@H]2[C@@H]3[C@H](O)C[C@@H]4C[C@H](O)CC[C@]4(C)[C@H]3CC[C@]12C [Chenodeoxycholic acid, chenodeoxycholic acid]
[1]; TRQC, oral, dogs
  time at which oral absorption reached a peak: ~5 h
[1]; both sexes, iv, 0.5 mL/kg, single TRQI 0.5 mL/kg, Mean
  AUC(0-t): 359 ng·h/mL
[1]; [5]
  Cmax: 120 ng/mL
  Tmax: 1.07 h
  half-life: 5.67 h
[1]; both sexes, po, 0.09 g/kg, single TRQCs 0.09 g/kg, Mean
  AUC(0-t): 553 ng·h/mL
[1]; [6]
  Cmax: 99.8 ng/mL
  Tmax: 7.53 h
  half-life: 5.93 h
[1]; female, iv, 0.5 mL/kg, single TRQI 0.5 mL/kg, beagle No 4
  AUC(0-t): 89 ng·h/mL
[1]; female, iv, 0.5 mL/kg, single TRQI 0.5 mL/kg, beagle No 5
  AUC(0-t): 137 ng·h/mL
[1]; female, iv, 0.5 mL/kg, single TRQI 0.5 mL/kg, beagle No 6
  AUC(0-t): 95 ng·h/mL
[1]; female, po, 0.09 g/kg, single TRQCs 0.09 g/kg, beagle No 4
  AUC(0-t): 1330 ng·h/mL
[1]; female, po, 0.09 g/kg, single TRQCs 0.09 g/kg, beagle No 5
  AUC(0-t): 126 ng·h/mL
[1]; female, po, 0.09 g/kg, single TRQCs 0.09 g/kg, beagle No 6
  AUC(0-t): 1080 ng·h/mL
[1]; male, iv, 0.5 mL/kg, single TRQI 0.5 mL/kg, beagle No 1
  AUC(0-t): 1490 ng·h/mL
[1]; male, iv, 0.5 mL/kg, single TRQI 0.5 mL/kg, beagle No 2
  AUC(0-t): 108 ng·h/mL
[1]; male, iv, 0.5 mL/kg, single TRQI 0.5 mL/kg, beagle No 3
  AUC(0-t): 238 ng·h/mL
[1]; male, po, 0.09 g/kg, single TRQCs 0.09 g/kg, beagle No 1
  AUC(0-t): 104 ng·h/mL
[1]; male, po, 0.09 g/kg, single TRQCs 0.09 g/kg, beagle No 2
  AUC(0-t): 257 ng·h/mL
[1]; male, po, 0.09 g/kg, single TRQCs 0.09 g/kg, beagle No 3
  AUC(0-t): 421 ng·h/mL
[2]; Hu's study
  t1/2: 1.83 h
[2]; another study
  t1/2: 0.55 h
[3]; both sexes, iv, 0.5 mL/kg, TRQI 0.5 mL/kg for 7 days, Mean
  AUC(0-inf): 5030 ng·h/mL
[3]; both sexes, iv, 0.5 mL/kg, TRQI 0.5 mL/kg for 7 days, Mean, read-out: AUC0–24 h
  AUC(0-t): 4070 ng·h/mL
[3]; [7]
  Cmax at 7 days: 968 ng/mL
  half-life at 7 days: 6.25 h
[3]; both sexes, po, 0.09 g/kg, TRQC 0.09 g/kg for 7 days, Mean
  AUC(0-inf): 3710 ng·h/mL
[3]; both sexes, po, 0.09 g/kg, TRQC 0.09 g/kg for 7 days, Mean, read-out: AUC0–24 h
  AUC(0-t): 3430 ng·h/mL
[3]; [8]
  Cmax at 7 days: 521 ng/mL
  Tmax at 7 days: 4.72 h
  half-life at 7 days: 13.7 h
[3]; female, iv, 0.5 mL/kg, TRQI 0.5 mL/kg for 7 days, beagle No. 4
  AUC(0-inf): 6190 ng·h/mL
[3]; female, iv, 0.5 mL/kg, TRQI 0.5 mL/kg for 7 days, beagle No. 4, read-out: AUC0–24 h
  AUC(0-t): 669 ng·h/mL
[3]; female, iv, 0.5 mL/kg, TRQI 0.5 mL/kg for 7 days, beagle No. 5
  AUC(0-inf): 399 ng·h/mL
[3]; female, iv, 0.5 mL/kg, TRQI 0.5 mL/kg for 7 days, beagle No. 5, read-out: AUC0–24 h
  AUC(0-t): 234 ng·h/mL
[3]; female, iv, 0.5 mL/kg, TRQI 0.5 mL/kg for 7 days, beagle No. 6
  AUC(0-inf): 138 ng·h/mL
[3]; female, iv, 0.5 mL/kg, TRQI 0.5 mL/kg for 7 days, beagle No. 6, read-out: AUC0–24 h
  AUC(0-t): 138 ng·h/mL
[3]; female, po, 0.09 g/kg, TRQC 0.09 g/kg for 7 days, beagle No. 4
  AUC(0-inf): 16800 ng·h/mL
[3]; female, po, 0.09 g/kg, TRQC 0.09 g/kg for 7 days, beagle No. 4, read-out: AUC0–24 h
  AUC(0-t): 16700 ng·h/mL
[3]; female, po, 0.09 g/kg, TRQC 0.09 g/kg for 7 days, beagle No. 5
  AUC(0-inf): 1960 ng·h/mL
[3]; female, po, 0.09 g/kg, TRQC 0.09 g/kg for 7 days, beagle No. 5, read-out: AUC0–24 h
  AUC(0-t): 500 ng·h/mL
[3]; female, po, 0.09 g/kg, TRQC 0.09 g/kg for 7 days, beagle No. 6
  AUC(0-inf): 761 ng·h/mL
[3]; female, po, 0.09 g/kg, TRQC 0.09 g/kg for 7 days, beagle No. 6, read-out: AUC0–24 h
  AUC(0-t): 760 ng·h/mL
[3]; male, iv, 0.5 mL/kg, TRQI 0.5 mL/kg for 7 days, beagle No. 1
  AUC(0-inf): 20000 ng·h/mL
[3]; male, iv, 0.5 mL/kg, TRQI 0.5 mL/kg for 7 days, beagle No. 1, read-out: AUC0–24 h
  AUC(0-t): 20000 ng·h/mL
[3]; male, iv, 0.5 mL/kg, TRQI 0.5 mL/kg for 7 days, beagle No. 2
  AUC(0-inf): 183 ng·h/mL
[3]; male, iv, 0.5 mL/kg, TRQI 0.5 mL/kg for 7 days, beagle No. 2, read-out: AUC0–24 h
  AUC(0-t): 121 ng·h/mL
[3]; male, iv, 0.5 mL/kg, TRQI 0.5 mL/kg for 7 days, beagle No. 3
  AUC(0-inf): 3250 ng·h/mL
[3]; male, iv, 0.5 mL/kg, TRQI 0.5 mL/kg for 7 days, beagle No. 3, read-out: AUC0–24 h
  AUC(0-t): 3240 ng·h/mL
[3]; male, po, 0.09 g/kg, TRQC 0.09 g/kg for 7 days, beagle No. 1
  AUC(0-inf): 231 ng·h/mL
[3]; male, po, 0.09 g/kg, TRQC 0.09 g/kg for 7 days, beagle No. 1, read-out: AUC0–24 h
  AUC(0-t): 195 ng·h/mL
[3]; male, po, 0.09 g/kg, TRQC 0.09 g/kg for 7 days, beagle No. 2
  AUC(0-inf): 1930 ng·h/mL
[3]; male, po, 0.09 g/kg, TRQC 0.09 g/kg for 7 days, beagle No. 2, read-out: AUC0–24 h
  AUC(0-t): 1900 ng·h/mL
[3]; male, po, 0.09 g/kg, TRQC 0.09 g/kg for 7 days, beagle No. 3
  AUC(0-inf): 538 ng·h/mL
[3]; male, po, 0.09 g/kg, TRQC 0.09 g/kg for 7 days, beagle No. 3, read-out: AUC0–24 h
  AUC(0-t): 493 ng·h/mL
[4]; [9]
  Freeze-thaw stability (3 cycles) Mean ± S.D. concentration: 95.70 ± 4.66 ng/mL
  Long-term stability (30 days at – 80 °C) Mean ± S.D. concentration: 101.23 ± 5.13 ng/mL
  Short-term stability (6 h at room temperature) Mean ± S.D concentration: 101.57 ± 0.54 ng/mL
[4]; [10]
  Freeze-thaw stability (3 cycles) Mean ± S.D. concentration: 1.97 ± 0.17 ng/mL
  Long-term stability (30 days at – 80 °C) Mean ± S.D. concentration: 1.92 ± 0.22 ng/mL
  Short-term stability (6 h at room temperature) Mean ± S.D concentration: 1.77 ± 0.06 ng/mL
[4]; [11]
  Freeze-thaw stability (3 cycles) Mean ± S.D. concentration: 9.37 ± 0.95 ng/mL
  Long-term stability (30 days at – 80 °C) Mean ± S.D. concentration: 10.10 ± 0.36 ng/mL
  Short-term stability (6 h at room temperature) Mean ± S.D concentration: 9.79 ± 0.78 ng/mL

From publication PMC9721025, “Pharmacokinetic study of the main components of Tanreqing capsules and Tanreqing injections in beagles by liquid chromatography–tandem mass spectrometry” (Chinese Medicine, 2022)
